# Values of other authors in US3940382A, “1,2'-Di-N-substituted kanamycin B compounds” (Zaidan Hojin Biseibutsu Kagaku Kenkyu Kai, priority 1973, dated 1976).
# Assays:
# [1] = system: gram-negative and gram-positive bacteria sensitive to the kanamycins; conditions: cited from earlier work
# drug-resistant bacteria = conditions: cited from earlier work
# [2] = system: kanamycin-resistant strains; conditions: strains phosphorylating the 3'-hydroxyl group of kanamycins; cited from earlier work
# [3] = system: Escherichia coli JR66/W677; conditions: strain adenylylating the 2"-hydroxyl group; cited from earlier work
SMILES,effectiveness against bacteria sensitive to the kanamycins [1],antibacterial activity against the drug-resistant bacteria (drug-resistant bacteria),effectiveness against kanamycin-resistant strains [2],activity against kanamycin-resistant strains such as Escherichia coli JR66/W677 [3]
NCC(O)C(=O)N[C@@H]1C[C@H](N)[C@@H](O[C@H]2O[C@H](CN)[C@@H](O)[C@H](O)[C@H]2N)[C@H](O)[C@H]1O[C@H]1O[C@H](CO)[C@@H](O)[C@H](N)[C@H]1O (stereo partly drawn) [1N-isoserylkanamycinB],effective,effective,–,–
NC[C@H]1O[C@H](O[C@H]2[C@H](O)[C@@H](O[C@H]3O[C@H](CO)[C@@H](O)[C@H](N)[C@H]3O)[C@H](N)C[C@@H]2N)[C@H](O)C[C@@H]1O [3'-deoxykanamycin],–,–,actually effective,practically inactive
NCC(O)C(=O)N[C@@H]1C[C@H](N)[C@@H](O[C@H]2O[C@H](CN)[C@@H](O)[C@H](O)[C@H]2O)[C@H](O)[C@H]1O[C@H]1O[C@H](CO)[C@@H](O)[C@H](N)[C@H]1O (stereo partly drawn) [1-N-isoserylkanamycin],effective,effective,–,–
